Laboratory results from US4401604A, “Process for preparing thiosulfenamide derivatives of N-phosphonomethylglycine triesters” (Monsanto Company, priority 1981, dated 1983).

Key:
Assay type in all cases: in vivo
Quackgrass [1] = test: Pre-emergent herbicidal activity; settings: Table III; 11.2 kg/h; 2 WAT
Excerpt: (§1) A good grade of top soil is placed in aluminum pans and compacted to a depth of 0.95 to 1.27 cm. from the top of each pan. A predetermined number of seeds or vegetative propagules of each of several plant species are placed on top of the soil in each pan and then pressed down. Herbicidal compositions prepared as in the previous example are applied by admixture with or incorporation in the top layer of soil.
(§2) In this method, the soil required to cover the seeds and propagules is weighed and admixed with a herbicidal composition containing a known amount of the active ingredient (compound of this invention). The pans are then filled with the admixture and leveled. Watering is carried out by permitting the soil in the pans to absorb moisture through apertures in the pan bottoms. The seed and propagule containing pans are placed on a wet sand bench and maintained for approximately two weeks under ordinary conditions of sunlight and watering. At the end of this period, the number of emerged plants of each species is noted and compared to an untreated control.
(§3) The pre-emergent herbicidal activity index used below is based upon average percent control of each species as follows:
(§4) Plant species in the table are identified by the same code letters used in the previous example.

Downy Brome [2] = test: Pre-emergent herbicidal activity; settings: Table III; 11.2 kg/h; 2 WAT
Excerpt: as §1, §2, §3, §4

Yellow Nutsedge [3] = test: Pre-emergent herbicidal activity; settings: Table III; 11.2 kg/h; 2 WAT
Excerpt: as §1, §2, §3, §4

Cocklebur [4] = test: Pre-emergent herbicidal activity; settings: Table III; 11.2 kg/h; 2 WAT
Excerpt: as §1, §2, §3, §4

Barnyardgrass [5] = test: Pre-emergent herbicidal activity; settings: Table III; 11.2 kg/h; 2 WAT
Excerpt: as §1, §2, §3, §4

Lambsquarters [6] = test: Pre-emergent herbicidal activity; settings: Table III; 11.2 kg/h; 2 WAT
Excerpt: as §1, §2, §3, §4

Johnsongrass [7] = test: Pre-emergent herbicidal activity; settings: Table III; 11.2 kg/h; 2 WAT
Excerpt: as §1, §2, §3, §4

Velvetleaf [8] = test: Pre-emergent herbicidal activity; settings: Table III; 11.2 kg/h; 2 WAT
Excerpt: as §1, §2, §3, §4

Morningglory [9] = test: Pre-emergent herbicidal activity; settings: Table III; 11.2 kg/h; 2 WAT
Excerpt: as §1, §2, §3, §4

Smartweed = test: Post-emergence herbicidal activity, greenhouse; settings: 4 WAT
Excerpt: (§5) A good grade of top soil is placed in aluminum pans having holes in the bottom and compacted to a depth of 0.95 to 1.27 cm. from the top of the pan. A predetermined number of seeds of each of several dicotyledonous and monocotyledonous annual plant species and/or vegetative propagules for the perennial plant species are placed on the soil and pressed into the soil surface. The seeds and/or vegetative propagules are covered with soil and leveled. The pans are then placed on a sand bench in the greenhouse and watered from below as needed. After the plants reach the desired age (two to three weeks), each pan except for the control pans is removed individually to a spraying chamber and sprayed by means of an atomizer operating at a positive air pressure of approximately 1.46 kg/cm^2 absolute. The atomizer contains 6 ml. of a solution or suspension of the chemical. In that 6 ml., is an amount of a cyclohexanone emulsifying agent mixture to give a spray solution or suspension which contains about 0.4% by weight of the emulsifier. The spray solution or suspension contains a sufficient amount of the candidate chemical in order to give application rates corresponding to those set forth in the tables. The spray solution is prepared by taking an aliquot of a 1.0% by weight stock solution or suspension of the candidate chemical in an organic solvent such as acetone or tetrahydrofuran or in water. The emulsifying agent employed is a mixture comprising 35 weight percent butylamine dodecylbenzene sulfonate and 65 weight percent of a tall oil ethylene oxide condensate having about 11 moles of ethylene oxide per mole of tall oil. The pans are returned to the greenhouse and watered as before and the injury to the plants as compared to the control is observed at approximately two and four weeks as indicated in the tables under WAT and the results recorded. In some instances, the two-week observations are omitted.
(§6) The post-emergence herbicidal activity index used in Table I is as follows:
(§7) The plant species utilized in these tests are identified by letter in accordance with the following legend: […]

Quackgrass [10] = test: Post-emergence herbicidal activity, greenhouse; settings: Table I, 4 WAT
Excerpt: as §5, §6, §7

Wheat = test: Post-emergence herbicidal activity, greenhouse; settings: Table II, 4 WAT
Excerpt: as §5, §6, §7

Downy Brome [11] = test: Post-emergence herbicidal activity, greenhouse; settings: 4 WAT
Excerpt: as §5, §6, §7

Yellow Nutsedge [12] = test: Post-emergence herbicidal activity, greenhouse; settings: Table I, 4 WAT
Excerpt: as §5, §6, §7

Soybean = test: Post-emergence herbicidal activity, greenhouse; settings: Table II, 4 WAT
Excerpt: as §5, §6, §7

Cocklebur [13] = test: Post-emergence herbicidal activity, greenhouse; settings: 4 WAT
Excerpt: as §5, §6, §7

Barnyardgrass [14] = test: Post-emergence herbicidal activity, greenhouse; settings: 4 WAT
Excerpt: as §5, §6, §7

Lambsquarters [15] = test: Post-emergence herbicidal activity, greenhouse; settings: 4 WAT
Excerpt: as §5, §6, §7

Johnsongrass [16] = test: Post-emergence herbicidal activity, greenhouse; settings: Table I, 4 WAT
Excerpt: as §5, §6, §7

Sorghum = test: Post-emergence herbicidal activity, greenhouse; settings: Table II, 4 WAT
Excerpt: as §5, §6, §7

Velvetleaf [17] = test: Post-emergence herbicidal activity, greenhouse; settings: 4 WAT
Excerpt: as §5, §6, §7

Canada Thistle = test: Post-emergence herbicidal activity, greenhouse; settings: Table I, 4 WAT
Excerpt: as §5, §6, §7

Hemp Sesbania = test: Post-emergence herbicidal activity, greenhouse; settings: Table II, 4 WAT
Excerpt: as §5, §6, §7

Morningglory [18] = test: Post-emergence herbicidal activity, greenhouse; settings: 4 WAT
Excerpt: as §5, §6, §7

Crabgrass = test: Post-emergence herbicidal activity, greenhouse; settings: Table II, 4 WAT
Excerpt: as §5, §6, §7

Rice = test: Post-emergence herbicidal activity, greenhouse; settings: Table II, 4 WAT
Excerpt: as §5, §6, §7

Sugar Beet = test: Post-emergence herbicidal activity, greenhouse; settings: Table II, 4 WAT
Excerpt: as §5, §6, §7

Panicum Spp = test: Post-emergence herbicidal activity, greenhouse; settings: Table II, 4 WAT
Excerpt: as §5, §6, §7

Wild Buckwheat = test: Post-emergence herbicidal activity, greenhouse; settings: Table II, 4 WAT
Excerpt: as §5, §6, §7

Structure (SMILES): CCOC(=O)CN(CP(=O)(Oc1ccc(OC)cc1)Oc1ccc(OC)cc1)SSC [VI, Glycine, N-[[bis(4-methoxyphenoxy)phosphinyl]methyl]-N-(methyldithio)-, ethyl ester]
- pre-emergent herbicidal activity index (Quackgrass [1]): 0 (0-24% control)
- pre-emergent herbicidal activity index (Downy Brome [2]): 0 (0-24% control)
- pre-emergent herbicidal activity index (Yellow Nutsedge [3]): 0 (0-24% control)
- pre-emergent herbicidal activity index (Cocklebur [4]): 0 (0-24% control)
- pre-emergent herbicidal activity index (Barnyardgrass [5]): 0 (0-24% control)
- pre-emergent herbicidal activity index (Lambsquarters [6]): 0 (0-24% control)
- pre-emergent herbicidal activity index (Johnsongrass [7]): 0 (0-24% control)
- pre-emergent herbicidal activity index (Velvetleaf [8]): 0 (0-24% control)
- pre-emergent herbicidal activity index (Morningglory [9]): 0 (0-24% control)
- post-emergence herbicidal activity index (Smartweed; Table I, 5.6 kg/h): 2 (50-74% control)
- post-emergence herbicidal activity index (Smartweed; Table I, 11.2 kg/h): 2 (50-74% control)
- post-emergence herbicidal activity index (Smartweed; Table II, 0.28 kg/h): 0 (0- 24% control)
- post-emergence herbicidal activity index (Smartweed; Table II, 5.6 kg/h): 4 (100% control)
- post-emergence herbicidal activity index (Quackgrass [10]; 5.6 kg/h): 0 (0- 24% control)
- post-emergence herbicidal activity index (Quackgrass [10]; 11.2 kg/h): 1 (25-49% control)
- post-emergence herbicidal activity index (Wheat; 0.28 kg/h): 0 (0- 24% control)
- post-emergence herbicidal activity index (Wheat; 1.12 kg/h): 1 (25-49% control)
- post-emergence herbicidal activity index (Wheat; 5.6 kg/h): 3 (75-99% control)
- post-emergence herbicidal activity index (Downy Brome [11]; Table I, 5.6 kg/h): 2 (50-74% control)
- post-emergence herbicidal activity index (Downy Brome [11]; Table I, 11.2 kg/h): 3 (75-99% control)
- post-emergence herbicidal activity index (Downy Brome [11]; Table II, 0.28 kg/h): 0 (0- 24% control)
- post-emergence herbicidal activity index (Downy Brome [11]; Table II, 1.12 kg/h): 2 (50-74% control)
- post-emergence herbicidal activity index (Downy Brome [11]; Table II, 5.6 kg/h): 4 (100% control)
- post-emergence herbicidal activity index (Yellow Nutsedge [12]; 5.6 kg/h): 1 (25-49% control)
- post-emergence herbicidal activity index (Yellow Nutsedge [12]; 11.2 kg/h): 1 (25-49% control)
- post-emergence herbicidal activity index (Soybean; 0.28 kg/h): 0 (0- 24% control)
- post-emergence herbicidal activity index (Soybean; 1.12 kg/h): 1 (25-49% control)
- post-emergence herbicidal activity index (Soybean; 5.6 kg/h): 3 (75-99% control)
- post-emergence herbicidal activity index (Cocklebur [13]; Table I, 5.6 kg/h): 2 (50-74% control)
- post-emergence herbicidal activity index (Cocklebur [13]; Table I, 11.2 kg/h): 3 (75-99% control)
- post-emergence herbicidal activity index (Cocklebur [13]; Table II, 0.28 kg/h): 0 (0- 24% control)
- post-emergence herbicidal activity index (Cocklebur [13]; Table II, 1.12 kg/h): 3 (75-99% control)
- post-emergence herbicidal activity index (Cocklebur [13]; Table II, 5.6 kg/h): 4 (100% control)
- post-emergence herbicidal activity index (Barnyardgrass [14]; Table I, 5.6 kg/h): 4 (100% control)
- post-emergence herbicidal activity index (Barnyardgrass [14]; Table I, 11.2 kg/h): 3 (75-99% control)
- post-emergence herbicidal activity index (Barnyardgrass [14]; Table II, 0.28 kg/h): 0 (0- 24% control)
- post-emergence herbicidal activity index (Barnyardgrass [14]; Table II, 1.12 kg/h): 3 (75-99% control)
- post-emergence herbicidal activity index (Barnyardgrass [14]; Table II, 5.6 kg/h): 4 (100% control)
- post-emergence herbicidal activity index (Lambsquarters [15]; Table I, 5.6 kg/h): 3 (75-99% control)
- post-emergence herbicidal activity index (Lambsquarters [15]; Table I, 11.2 kg/h): 3 (75-99% control)
- post-emergence herbicidal activity index (Lambsquarters [15]; Table II, 0.28 kg/h): 0 (0- 24% control)
- post-emergence herbicidal activity index (Lambsquarters [15]; Table II, 1.12 kg/h): 2 (50-74% control)
- post-emergence herbicidal activity index (Lambsquarters [15]; Table II, 5.6 kg/h): 4 (100% control)
- post-emergence herbicidal activity index (Johnsongrass [16]; 5.6 kg/h): 2 (50-74% control)
- post-emergence herbicidal activity index (Johnsongrass [16]; 11.2 kg/h): 3 (75-99% control)
- post-emergence herbicidal activity index (Sorghum; 0.28 kg/h): 0 (0- 24% control)
- post-emergence herbicidal activity index (Sorghum; 1.12 kg/h): 2 (50-74% control)
- post-emergence herbicidal activity index (Sorghum; 5.6 kg/h): 3 (75-99% control)
- post-emergence herbicidal activity index (Velvetleaf [17]; Table I, 5.6 kg/h): 1 (25-49% control)
- post-emergence herbicidal activity index (Velvetleaf [17]; Table I, 11.2 kg/h): 2 (50-74% control)
- post-emergence herbicidal activity index (Velvetleaf [17]; Table II, 0.28 kg/h): 0 (0- 24% control)
- post-emergence herbicidal activity index (Velvetleaf [17]; Table II, 1.12 kg/h): 1 (25-49% control)
- post-emergence herbicidal activity index (Velvetleaf [17]; Table II, 5.6 kg/h): 4 (100% control)
- post-emergence herbicidal activity index (Canada Thistle; 5.6 kg/h): 1 (25-49% control)
- post-emergence herbicidal activity index (Canada Thistle; 11.2 kg/h): 2 (50-74% control)
- post-emergence herbicidal activity index (Hemp Sesbania; 0.28 kg/h): 0 (0- 24% control)
- post-emergence herbicidal activity index (Hemp Sesbania; 1.12 kg/h): 0 (0- 24% control)
- post-emergence herbicidal activity index (Hemp Sesbania; 5.6 kg/h): 3 (75-99% control)
- post-emergence herbicidal activity index (Morningglory [18]; Table I, 5.6 kg/h): 2 (50-74% control)
- post-emergence herbicidal activity index (Morningglory [18]; Table I, 11.2 kg/h): 3 (75-99% control)
- post-emergence herbicidal activity index (Morningglory [18]; Table II, 0.28 kg/h): 0 (0- 24% control)
- post-emergence herbicidal activity index (Morningglory [18]; Table II, 1.12 kg/h): 2 (50-74% control)
- post-emergence herbicidal activity index (Morningglory [18]; Table II, 5.6 kg/h): 3 (75-99% control)
- post-emergence herbicidal activity index (Crabgrass; 0.28 kg/h): 0 (0- 24% control)
- post-emergence herbicidal activity index (Crabgrass; 1.12 kg/h): 4 (100% control)
- post-emergence herbicidal activity index (Crabgrass; 5.6 kg/h): 4 (100% control)
- post-emergence herbicidal activity index (Rice; 0.28 kg/h): 0 (0- 24% control)
- post-emergence herbicidal activity index (Rice; 1.12 kg/h): 0 (0- 24% control)
- post-emergence herbicidal activity index (Rice; 5.6 kg/h): 3 (75-99% control)
- post-emergence herbicidal activity index (Sugar Beet; 0.28 kg/h): 0 (0- 24% control)
- post-emergence herbicidal activity index (Sugar Beet; 1.12 kg/h): 1 (25-49% control)
- post-emergence herbicidal activity index (Sugar Beet; 5.6 kg/h): 4 (100% control)
- post-emergence herbicidal activity index (Panicum Spp; 0.28 kg/h): 0 (0- 24% control)
- post-emergence herbicidal activity index (Panicum Spp; 1.12 kg/h): 2 (50-74% control)
- post-emergence herbicidal activity index (Panicum Spp; 5.6 kg/h): 4 (100% control)
- post-emergence herbicidal activity index (Wild Buckwheat; 0.28 kg/h): 0 (0- 24% control)
- post-emergence herbicidal activity index (Wild Buckwheat; 1.12 kg/h): 1 (25-49% control)
- post-emergence herbicidal activity index (Wild Buckwheat; 5.6 kg/h): 4 (100% control)
